Data published in PMC9338973, “Rosmarinus officinalis L. hexane extract: phytochemical analysis, nanoencapsulation, and in silico, in vitro, and in vivo anti-photoaging potential evaluation” (Scientific Reports, 2022).
In brackets after ≈: the same amount, converted by molar mass. Several values for one entry are separate records, joined by “and”; a condition that tells them apart may be missing. Identical values can stand only once. Values belong to the compound of their own block, whether it stands above or below them.

Legend:
Cytotoxicity MTT assay = type: cell-based; conditions: human, WI-38 normal lung fibroblast cells, WI38 cell line, read-out: cytotoxic effect IC50
Description: The cytotoxicity of RHE extract was evaluated against human normal lung fibroblasts cell line WI-38 using MTT (3-(4,5-dimethylthiazol-2-yl)2,5-diphenyl tetrazolium bromide) assay[116] as recently described.

[1] = DPPH radical scavenging activity
Description: The scavenging activity of the stable 2,2-diphenyl-1-picrylhydrazyl (DPPH) free radical by RHE was assessed according to the method reported by Boly et al.[112].

[2] = biological target: T1, Porcine pancreatic elastase (Sus scrofa, UniProt P00772); assay: Anti-elastase assay (EnzCheck, fluorimetric); type: biochemical
T1 construct: purchased Molecular Probes
T1 sequence (P00772 27-266): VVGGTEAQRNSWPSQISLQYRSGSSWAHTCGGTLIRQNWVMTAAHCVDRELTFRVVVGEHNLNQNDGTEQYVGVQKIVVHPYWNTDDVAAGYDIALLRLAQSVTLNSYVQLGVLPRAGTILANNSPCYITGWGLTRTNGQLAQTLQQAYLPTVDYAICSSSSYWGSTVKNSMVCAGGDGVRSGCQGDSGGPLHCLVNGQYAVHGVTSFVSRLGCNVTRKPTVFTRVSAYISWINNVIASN
Description: The elastase inhibitory activity was assessed fluorimetrically using the EnzCheck® elastase assay kit (Molecular Probes, Laiden, Netherlands). A 1 mg/mL stock solution of the substrate (DQ elastin) was prepared in deionized water. Porcine pancreatic elastase stock solution was prepared in deionized water at 100 U/mL and dilutions were made in Tris–HCL buffer. Pre-incubation of 50 µL of different dilutions of the extract (inhibitor) with 100 µL of the enzyme was done for 15 min followed by the addition of the substrate (50 µL). Controls were prepared with buffer instead of extract. Fluorescence intensity was continuously measured for 20 min in a fluorescence microplate reader equipped with standard fluorescein filters (λex 505 nm, λem 515 nm). Subtraction of background fluorescence was done in no-enzyme wells. 1,10-Phenathrolinewas used as a standard elastase inhibitor. The IC50 is the concentration of the extract required to inhibit 50% of elastase activity.
The percentage of elastase inhibition(%)=(1-S/C)×100 where S is the corrected fluorescence of the extract samples and C is the corrected fluorescence of the control.

collagenase = assay: Anti-collagenase assay (fluorimetric, BODIPY-gelatin); type: biochemical
Description: The evaluation of collagenase inhibitory activity was performed fluorimetrically in a microplate reader. Briefly, the self-quenched BODIPY conjugate of gelatin (Type B) was used as a fluorogenic substrate to monitor the activity of collagenase (Biovision, CA, USA). Collagenase stock solution was prepared in 50 mM Tricine buffer at 0.8 U/mL and the substrate (BODIPY) was dissolved in Tricine buffer to 2 mM. One microliter of different concentrations of the extract (1, 10, 100, and 1000 µg/mL) was incubated with the 5 µL collagenase in buffer and 44 µL Tricine buffer for 15 min before adding the substrate. […] The reaction is initiated by mixing two µL of the substrate with the previous reaction mixture. Negative controls were prepared with the buffer. Fluorescence intensity was monitored (λex 490 nm, λem 520 nm, 515 nm cut-off) in a kinetic mode at 37 °C for 30–60 min.
The percentage of collagenase inhibition(%)=(1-S/C)×100 where S is the corrected fluorescence of the extract sample and C is the corrected fluorescence of the control.

elastase enzyme = biological target: elastase enzyme; parameters: method as in doi:10.1517/13543776.3.8.1237; conditions: cited from earlier work

Compound: Nc1nc2c(ncn2COCCO)c(=O)[nH]1 [acyclovir]
- IC50 (Cytotoxicity MTT assay): 48.6 ± 3.2 µg/mL (≈ 216 µM)

- DPPH (IC50, µg/mL) [1]: 6.1 ± 0.2 µg/mL and 6.11 ± 0.2 µg/mL
Compound: Cc1c(C)c2c(c(C)c1O)CCC(C)(C(=O)O)O2 (centres unmarked) [Trolox]

Compound: c1cnc2c(c1)ccc1cccnc12 [1,10-Phenanthroline]
- IC50 [2]: 142 µM
- IC50 Collagenase (collagenase): 340.8 ± 17.3 µg/mL (≈ 1890 µM)

Compound: CC1=CC(=O)[C@@H]2C[C@H]1C2(C)C [Verbenone]
- IC50 of elastase enzyme inhibition (elastase enzyme): picomolar range
